Experimental data published in ChEMBL document CHEMBL6096697, “Structure-Guided Discovery of Novel N4-(Substituted Thiazol-2-yl)-N2-(4-Substituted phenyl)pyrimidine-2,4-Diamines as Potent CDK2 and CDK9 Dual Inhibitors with High Oral Bioavailability” (J Med Chem, 2025).
Activity calls are given as the source filed them. The rule behind the calls is not given here.

How the values were obtained:
[1] = biological target: Cyclin-dependent kinase 2/cyclin A (Homo sapiens) (UniProt P24941+P20248+P78396); assay: Inhibition of CDK2/cyclin A (unknown origin) using […] at 1 uM incubated for 40 mins in presence of ATP by Kinase-Glo assay relative to control; assay type: protein-complex assay
HCT-116 [2] = assay: Induction of apoptosis in human HCT-116 cells assessed as necrotic cells at 0.4 uM incubated for 24 hrs by PI staining based flow cytometry (reference value: 18.9 %); assay type: functional
HeLa [3] = assay: Induction of cell cycle arrest in human HeLa cells assessed as accumulation at sub-G1 phase at 0.9 uM incubated for 24 hrs by PI staining based flow cytometry (reference value: 1.89 +/- 0.56 %); assay type: functional
[4] = Toxicity in Balb/c-nu nude mouse xenografted with human HCT-116 cells assessed as toxicity in liver at 35 to 70 mg/kg/day, po treated for 30 days by H and E staining based analysis; assay type: organism-based; conditions: in vivo, 720 h, dose 35-70 mg/kg/day, time 30 day
HeLa [5] = assay: Induction of apoptosis in human HeLa cells assessed as late apoptotic cells at 0.9 uM incubated for 24 hrs by PI staining based flow cytometry (reference value: 3.85 %); assay type: functional
HeLa [6] = assay: Induction of cell cycle arrest at G2/M phase in human HeLa cells assessed as decrease in p-Cdc2 level at 1.8 uM by Western blot analysis; assay type: functional, cell-based; conditions: time <= 48.0 hrs
[7] = Antiproliferative activity against HEK293 cells assessed as cell growth inhibition incubated for 48 hrs by MTT assay; assay type: toxicity, cell-based; conditions: human
HeLa [8] = assay: Induction of cell cycle arrest in human HeLa cells assessed as accumulation at G1/G0 phase at 0.9 uM incubated for 24 hrs by PI staining based flow cytometry (reference value: 57.63 +/- 1.7 %); assay type: functional
HCT-116 [9] = assay: Induction of cell cycle arrest in human HCT-116 cells assessed as accumulation at S phase at 0.4 uM incubated for 24 hrs by PI staining based flow cytometry (reference value: 20.82 +/- 1.24 %); assay type: functional
HeLa [10] = assay: Induction of apoptosis in human HeLa cells assessed as viable cells at 1.8 uM incubated for 24 hrs by PI staining based flow cytometry (reference value: 68.9 %); assay type: functional; conditions: read-out: Activity
HT-29 = assay: Antiproliferative activity against human HT-29 cells assessed as cell growth inhibition incubated for 48 hrs by MTT assay; assay type: functional, cell-based; conditions: HT-29, 48 h
HCT-116 [11] = assay: Induction of cell cycle arrest at G2/M phase in human HCT-116 cells assessed as decrease in p-Cdc2 level incubated for 48 hrs by Western blot analysis; assay type: functional, cell-based; conditions: dose <= 0.8 µM
[12] = biological target: CDK9/cyclin T1 (Homo sapiens) (UniProt O60563+P50750); assay: Inhibition of CDK9/cyclin T (unknown origin) using […] at 1 uM incubated for 40 mins in presence of ATP by Kinase-Glo assay relative to control; assay type: protein-complex assay
[13] = Selectivity index, ratio of IC50 for CDK1/cyclin B (unknown origin) using […] to IC50 for CDK2/cyclin A (unknown origin) using […]
HCT-116 [14] = assay: Antitumor activity against human HCT-116 cells xenografted in Balb/c-nu nude mouse at 35 mg/kg/day, po treated for 7 days consecutively relative to control; assay type: functional; conditions: HCT-116, 168 h, time 7 day, read-out: TGI
HCT-116 [15] = assay: Induction of apoptosis in human HCT-116 cells assessed as necrotic cells at 0.8 uM incubated for 24 hrs by PI staining based flow cytometry (reference value: 18.9 %); assay type: functional
[16] = MRT (0 to infinity) in Sprague-Dawley rat at 10 mg/kg, po measured for 36 hrs by MRM analysis; assay type: ADME, organism-based; conditions: in vivo
HeLa [17] = assay: Induction of apoptosis in human HeLa cells assessed as early apoptotic cells at 0.9 uM incubated for 24 hrs by PI staining based flow cytometry (reference value: 0.8 %); assay type: functional
HeLa [18] = assay: Induction of apoptosis in human HeLa cells assessed as total apoptotic cells at 3.6 uM incubated for 24 hrs by PI staining based flow cytometry (reference value: 4.65 %); assay type: functional
HCT-116 [19] = assay: Antitumor activity against human HCT-116 cells xenografted in Balb/c-nu nude mouse at 70 mg/kg/day, po treated for 7 days consecutively relative to control; assay type: functional; conditions: HCT-116, 168 h, time 7 day, read-out: TGI
HCT-116 [20] = assay: Induction of apoptosis in human HCT-116 cells assessed as late apoptotic cells at 0.8 uM incubated for 24 hrs by PI staining based flow cytometry (reference value: 1.11 %); assay type: functional
HCT-116 [21] = assay: Induction of apoptosis in human HCT-116 cells assessed as early apoptotic cells at 0.8 uM incubated for 24 hrs by PI staining based flow cytometry (reference value: 0.19 %); assay type: functional
HCT-116 [22] = assay: Induction of cell cycle arrest in human HCT-116 cells assessed as accumulation at G1/G0 phase at 0.4 uM incubated for 24 hrs by PI staining based flow cytometry (reference value: 58.29 +/- 2.01 %); assay type: functional
HeLa [23] = assay: Induction of cell cycle arrest in human HeLa cells assessed as accumulation at sub-G1 phase at 3.6 uM incubated for 24 hrs by PI staining based flow cytometry (reference value: 1.89 +/- 0.56 %); assay type: functional
HeLa [24] = assay: Induction of apoptosis in human HeLa cells assessed as early apoptotic cells at 1.8 uM incubated for 24 hrs by PI staining based flow cytometry (reference value: 0.8 %); assay type: functional
HeLa [25] = assay: Induction of apoptosis in human HeLa cells assessed as necrotic cells at 3.6 uM incubated for 24 hrs by PI staining based flow cytometry (reference value: 25.5 %); assay type: functional
[26] = Apparent volume of distribution in Sprague-Dawley rat at 10 mg/kg, po measured for 36 hrs by MRM analysis; assay type: ADME, organism-based; conditions: in vivo
HeLa [27] = assay: Induction of cell cycle arrest in human HeLa cells assessed as accumulation at G2/M phase at 1.8 uM incubated for 24 hrs by PI staining based flow cytometry (reference value: 24.6 +/- 1.11 %); assay type: functional
HeLa [28] = assay: Induction of apoptosis in human HeLa cells assessed as decrease in Bcl-2 level upto 3.6 uM incubated for 24 hrs by Western blot analysis; assay type: functional, cell-based
MV4-11 = assay: Antiproliferative activity against human MV4-11 cells assessed as cell growth inhibition incubated for 48 hrs by MTT assay; assay type: functional, cell-based; conditions: MV4-11, 48 h
HeLa [29] = assay: Induction of cell cycle arrest in human HeLa cells assessed as accumulation at sub-G1 phase at 1.8 uM incubated for 24 hrs by PI staining based flow cytometry (reference value: 1.89 +/- 0.56 %); assay type: functional
HeLa [30] = assay: Induction of apoptosis in human HeLa cells assessed as early apoptotic cells at 3.6 uM incubated for 24 hrs by PI staining based flow cytometry (reference value: 0.8 %); assay type: functional
HCT-116 [31] = assay: Induction of cell cycle arrest at G2/M phase in human HCT-116 cells assessed as decrease in cyclin B1 level at 0.4 uM by Western blot analysis; assay type: functional, cell-based; conditions: time <= 48.0 hrs
HeLa [32] = assay: Induction of cell cycle arrest at G2/M phase in human HeLa cells assessed as decrease in cyclin B1 level at 1.8 uM by Western blot analysis; assay type: functional, cell-based; conditions: time <= 48.0 hrs
HCT-116 [33] = assay: Effect on Bax level in human HCT-116 cells upto 0.8 uM incubated for 24 hrs by Western blot analysis; assay type: functional, cell-based

Q: Which results are given for `Cc1cnc(Nc2ccc(S(N)(=O)=O)cc2)nc1Nc1nccs1`?
A: inhibition [1]: 99.5%; Activity (HCT-116 [2]): 4.8%; Activity (HeLa [3]): 1.81%; Activity [4]: Non-toxic; Activity (HeLa [5]): 5%; Activity (HeLa [6]): Time-dependent-effect; IC50 at 48 h [7]: 90.1 µM; Activity (HeLa [8]): 52.88%; Activity (HCT-116 [9]): 22.25%; viability at 1.8 µM (HeLa [10]): 11.3%; IC50 (HT-29): 3.62 µM; Activity (HCT-116 [11]): Dose-dependent-effect; inhibition [12]: 99%; Ratio IC50 [13]: 13; inhibition in vivo at 35 mg/kg/day (HCT-116 [14]): 39%; Activity (HCT-116 [15]): 4%; MRT inf [16]: 7 h; Activity (HeLa [17]): 65.8%; Activity (HeLa [18]): 88.3%; inhibition in vivo at 70 mg/kg/day (HCT-116 [19]): 67%; Activity (HCT-116 [20]): 27.7%; Activity (HCT-116 [21]): 15.5%; Activity (HCT-116 [22]): 44.9%; Activity (HeLa [23]): 19.5%; Activity (HeLa [24]): 62.6%; Activity (HeLa [25]): 0.72%; Vz [26]: 398.7 L/kg; Activity (HeLa [27]): 30.58%; Activity (HeLa [28]): Active; IC50 (MV4-11): 0.121 µM; Activity (HeLa [29]): 1.28%; Activity (HeLa [30]): 61%; Activity (HCT-116 [31]): Time-dependent-effect; Activity (HeLa [32]): Time-dependent-effect; Activity (HCT-116 [33]): No effect
